In patent US8664257B2, “Oxygen-substituted 3-heteroaroylamino-propionic acid derivatives and their use as pharmaceuticals” (Sanofi, priority 2010, dated 2014):

Each compound was assayed against T1, Recombinant human cathepsin A (Homo sapiens, UniProt P10619) (assay: Cathepsin A inhibitory activity). Settings: read-out: Activity (2): Cathepsin A inhibitory activity, IC50 class.
T1 construct: Recombinant human cathepsin A (residues 29-480, with a C-terminal 10-His tag); 10-His (C); purchased R&D Systems 1049-SE
T1 sequence (P10619 29-312 limits assumed): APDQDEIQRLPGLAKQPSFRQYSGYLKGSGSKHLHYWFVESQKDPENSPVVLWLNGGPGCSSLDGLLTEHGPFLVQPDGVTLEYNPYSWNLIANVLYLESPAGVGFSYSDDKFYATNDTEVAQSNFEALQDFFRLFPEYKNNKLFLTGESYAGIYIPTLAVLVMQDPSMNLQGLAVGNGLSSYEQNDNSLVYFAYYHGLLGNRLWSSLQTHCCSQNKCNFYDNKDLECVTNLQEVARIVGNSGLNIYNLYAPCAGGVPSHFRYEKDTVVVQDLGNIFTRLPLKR
T1 sequence (P10619 327-480 limits assumed): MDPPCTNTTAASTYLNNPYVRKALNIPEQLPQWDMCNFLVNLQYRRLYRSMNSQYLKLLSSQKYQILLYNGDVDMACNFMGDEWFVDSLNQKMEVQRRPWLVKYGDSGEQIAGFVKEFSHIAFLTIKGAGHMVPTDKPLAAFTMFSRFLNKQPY
Format: biochemical
Summary of the method: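 Read-out was microfluidic separation of cleaved vs. uncleaved Bodipy FL-bradykinin (2 μM), giving turnover, % inhibition and IC50. Compound and 833 ng/ml enzyme met for 15 min RT in pH 5.5 MES/DTT before substrate (15 min RT). The 29-480 His-tagged human enzyme was first activated by cathepsin L, then E-64 (10 μM).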

SMILES | IC50 [nM]
CC(C)C(C)(O)COc1cc(C(=O)N[C@@H](CC(=O)O)c2cccc(C#N)c2)nn1-c1ccccc1F (stereo partly drawn) [Example 807, (S)-3-(3-Cyano-phenyl)-3-{[1-(2-fluoro-phenyl)-5-(2-hydroxy-2,3-dimethyl-butoxy)-1H-pyrazole-3-carbonyl]-amino}-propionic acid] | < 100
CC(C)C(C)(O)COc1cc(C(=O)N[C@@H](CC(=O)O)c2c(F)cccc2F)nn1-c1ccccc1F (stereo partly drawn) [Example 808, (S)-3-(2,6-Difluoro-phenyl)-3-{[1-(2-fluoro-phenyl)-5-(2-hydroxy-2,3-dimethyl-butoxy)-1H-pyrazole-3-carbonyl]-amino}-propionic acid] | < 100
CC(C)(C)[C@H](O)COc1cc(C(=O)N[C@@H](CC(=O)O)c2cccc(Cl)c2)nn1-c1ccccc1F [Example 809, (S)-3-(3-Chloro-phenyl)-3-{[1-(2-fluoro-phenyl)-5-((S)-2-hydroxy-3,3-dimethyl-butoxy)-1H-pyrazole-3-carbonyl]-amino}-propionic acid] | < 100
COc1ccccc1[C@H](CC(=O)O)NC(=O)c1cc(OC[C@@](C)(O)C(C)(C)C)n(-c2ccccc2F)n1 [Example 810, (S)-3-{[1-(2-Fluoro-phenyl)-5-((S)-2-hydroxy-2,3,3-trimethyl-butoxy)-1H-pyrazole-3-carbonyl]-amino}-3-(2-methoxy-phenyl)-propionic acid] | < 100
COc1ccccc1[C@H](CC(=O)O)NC(=O)c1cc(OCC(C)(O)C(C)C)n(-c2ccccc2F)n1 (stereo partly drawn) [Example 811, (S)-3-{[1-(2-Fluoro-phenyl)-5-(2-hydroxy-2,3-dimethyl-butoxy)-1H-pyrazole-3-carbonyl]-amino}-3-(2-methoxy-phenyl)-propionic acid] | < 100
CC(C)C(C)(O)COc1cc(C(=O)N[C@@H](CC(=O)O)c2ccccc2C(F)(F)F)nn1-c1ccccc1F (stereo partly drawn) [Example 812, (S)-3-{[1-(2-Fluoro-phenyl)-5-(2-hydroxy-2,3-dimethyl-butoxy)-1H-pyrazole-3-carbonyl]-amino}-3-(2-trifluoromethyl-phenyl)-propionic acid] | < 100
CC(C)C(C)(O)COc1cc(C(=O)NC(CC(=O)O)C2CCCCC2)nn1-c1ccccc1F (stereo not drawn) [Example 813, 3-Cyclohexyl-3-{[1-(2-fluoro-phenyl)-5-(2-hydroxy-2,3-dimethyl-butoxy)-1H-pyrazole-3-carbonyl]-amino}-propionic acid] | < 100
CC(C)CC(CC(=O)O)NC(=O)c1cc(OCC(C)(O)C(C)C)n(-c2ccccc2F)n1 (stereo not drawn) [Example 814, 3-{[1-(2-Fluoro-phenyl)-5-(2-hydroxy-2,3-dimethyl-butoxy)-1H-pyrazole-3-carbonyl]-amino}-5-methyl-hexanoic acid] | < 100
CC(C)(C)C(O)COc1cc(C(=O)N[C@H](CC(=O)O)c2ccc(Cl)cc2)nn1-c1ccccc1F (stereo partly drawn) [Example 815, (R)-3-(4-Chloro-phenyl)-3-{[1-(2-fluoro-phenyl)-5-(2-hydroxy-3,3-dimethyl-butoxy)-1H-pyrazole-3-carbonyl]-amino}-propionic acid] | < 100
CC(C)[C@@](C)(O)COc1cc(C(=O)N[C@@H](CC(=O)O)c2ccc(Cl)cc2Cl)nn1-c1ccccc1F [Example 816, (S)-3-(2,4-Dichloro-phenyl)-3-{[1-(2-fluoro-phenyl)-5-((R)-2-hydroxy-2,3-dimethyl-butoxy)-1H-pyrazole-3-carbonyl]-amino}-propionic acid] | < 100
CC(C)[C@](C)(O)COc1cc(C(=O)N[C@@H](CC(=O)O)c2c(F)cccc2F)nn1-c1ccccc1F [Example 817, (S)-3-(2,6-Difluoro-phenyl)-3-{[1-(2-fluoro-phenyl)-5-((S)-2-hydroxy-2,3-dimethyl-butoxy)-1H-pyrazole-3-carbonyl]-amino}-propionic acid] | < 100
CC(C)(C)[C@](C)(O)COc1cc(C(=O)NC(CC(=O)O)Cc2ccccc2)nn1-c1ccccc1F (stereo partly drawn) [Example 818, 3-{[1-(2-Fluoro-phenyl)-5-((S)-2-hydroxy-2,3,3-trimethyl-butoxy)-1H-pyrazole-3-carbonyl]-amino}-4-phenyl-butyric acid] | < 100
CC(C)(C)[C@](C)(O)COc1cc(C(=O)N[C@@H](CC(=O)O)c2cccc(F)c2)nn1-c1ccccc1F [Example 819, (S)-3-(3-Fluoro-phenyl)-3-{[1-(2-fluoro-phenyl)-5-((S)-2-hydroxy-2,3,3-trimethyl-butoxy)-1H-pyrazole-3-carbonyl]-amino}-propionic acid] | < 100
CC(C)(C)[C@@](C)(O)COc1cc(C(=O)NC(CC(=O)O)C2CCCCC2)nn1-c1ccccc1F (stereo partly drawn) [Example 820, 3-Cyclohexyl-3-{[1-(2-fluoro-phenyl)-5-((R)-2-hydroxy-2,3,3-trimethyl-butoxy)-1H-pyrazole-3-carbonyl]-amino}-propionic acid] | < 100
CC(C)[C@@](C)(O)COc1cc(C(=O)NC(CC(=O)O)Cc2ccccc2)nn1-c1ccccc1F (stereo partly drawn) [Example 821, 3-{[1-(2-Fluoro-phenyl)-5-((R)-2-hydroxy-2,3-dimethyl-butoxy)-1H-pyrazole-3-carbonyl]-amino}-4-phenyl-butyric acid] | < 100
COc1ccccc1[C@H](CC(=O)O)NC(=O)c1cc(OC[C@](C)(O)C(C)C)n(-c2ccccc2F)n1 [Example 822, (S)-3-{[1-(2-Fluoro-phenyl)-5-((R)-2-hydroxy-2,3-dimethyl-butoxy)-1H-pyrazole-3-carbonyl]-amino}-3-(2-methoxy-phenyl)-propionic acid] | < 100
CC(C)CC(CC(=O)O)NC(=O)c1cc(OC[C@](C)(O)C(C)C)n(-c2ccccc2F)n1 (stereo partly drawn) [Example 823, 3-{[1-(2-Fluoro-phenyl)-5-((R)-2-hydroxy-2,3-dimethyl-butoxy)-1H-pyrazole-3-carbonyl]-amino}-5-methyl-hexanoic acid] | 100 to 1000
CC(C)[C@@](C)(O)COc1cc(C(=O)NC2(CC(=O)O)CCCC2)nn1-c1ccccc1F [Example 824, (1-{[1-(2-Fluoro-phenyl)-5-((R)-2-hydroxy-2,3-dimethyl-butoxy)-1H-pyrazole-3-carbonyl]-amino}-cyclopentyl)-acetic acid] | 100 to 1000
CC(C)[C@](C)(O)COc1cc(C(=O)NC2(CC(=O)O)CCCC2)nn1-c1ccccc1F [Example 825, (1-{[1-(2-Fluoro-phenyl)-5-((S)-2-hydroxy-2,3-dimethyl-butoxy)-1H-pyrazole-3-carbonyl]-amino}-cyclopentyl)-acetic acid] | 100 to 1000
CC(C)[C@](C)(O)COc1cc(C(=O)NC(CC(=O)O)Cc2ccccc2)nn1-c1ccccc1F (stereo partly drawn) [Example 826, 3-{[1-(2-Fluoro-phenyl)-5-((S)-2-hydroxy-2,3-dimethyl-butoxy)-1H-pyrazole-3-carbonyl]-amino}-4-phenyl-butyric acid] | 100 to 1000
CC(C)[C@@](C)(O)COc1cc(C(=O)NCC(C(=O)O)c2ccccc2)nn1-c1ccccc1F (stereo partly drawn) [Example 827, 3-{[1-(2-Fluoro-phenyl)-5-((R)-2-hydroxy-2,3-dimethyl-butoxy)-1H-pyrazole-3-carbonyl]-amino}-2-phenyl-propionic acid] | 100 to 1000
CC(C)(C)[C@@H](O)COc1cc(C(=O)N[C@@H](CC(=O)O)c2ccc(Cl)cc2)nn1-c1ccccc1F [Example 828, (S)-3-(4-Chloro-phenyl)-3-{[1-(2-fluoro-phenyl)-5-((R)-2-hydroxy-3,3-dimethyl-butoxy)-1H-pyrazole-3-carbonyl]-amino}-propionic acid] | 100 to 1000
CC(C)C(C)(O)COc1cc(C(=O)NC(CC(=O)O)Cc2ccccc2)nn1-c1ccccc1F (stereo not drawn) [Example 829, 3-{[1-(2-Fluoro-phenyl)-5-(2-hydroxy-2,3-dimethyl-butoxy)-1H-pyrazole-3-carbonyl]-amino}-4-phenyl-butyric acid] | 100 to 1000
CC(C)[C@](C)(O)COc1cc(C(=O)NCC(C(=O)O)c2ccccc2)nn1-c1ccccc1F (stereo partly drawn) [Example 830, 3-{[1-(2-Fluoro-phenyl)-5-((S)-2-hydroxy-2,3-dimethyl-butoxy)-1H-pyrazole-3-carbonyl]-amino}-2-phenyl-propionic acid] | 100 to 1000
CC(C)(C)[C@](C)(O)COc1cc(C(=O)N[C@H](CC(=O)O)Cc2ccc(C#N)cc2)nn1-c1ccccc1F [Example 832, (S)-4-(4-Cyano-phenyl)-3-{[1-(2-fluoro-phenyl)-5-((S)-2-hydroxy-2,3,3-trimethyl-butoxy)-1H-pyrazole-3-carbonyl]-amino}-butyric acid] | 1000 to 30000
CC(C)[C@](C)(O)COc1cc(C(=O)N[C@H](CC(=O)O)Cc2ccc(C#N)cc2)nn1-c1ccccc1F [Example 834, (S)-4-(4-Cyano-phenyl)-3-{[1-(2-fluoro-phenyl)-5-((S)-2-hydroxy-2,3-dimethyl-butoxy)-1H-pyrazole-3-carbonyl]-amino}-butyric acid] | 1000 to 30000
CC(C)[C@](C)(O)COc1cc(C(=O)N[C@@H](CC(=O)O)c2ccccc2F)nn1-c1ccccc1F [Example 835, (S)-3-(2-Fluoro-phenyl)-3-{[1-(2-fluoro-phenyl)-5-((S)-2-hydroxy-2,3-dimethyl-butoxy)-1H-pyrazole-3-carbonyl]-amino}-propionic acid] | < 100
